Source: patent US20040106093A1, “Myb-transformed blood cells and their use for active ingredient screening” (priority 2001, published 2004)

What was measured:
Type in all cases: cell-based, chicken
[1] = system: bFGF/v-myb-cells; experiment: Proliferation assay of bFGF-stimulated bFGF/v-myb-cells with specific signalling inhibitors (3H-thymidine incorporation); conditions: bFGF 25 ng/ml, FIG. 5B; for effect on bFGF induced bFGF/v-myb cell proliferation: proliferation without inhibitor set 100%, C; for reduction of bFGF induced bFGF/v-myb cell proliferation: GF 109203X 10 nM, Cyclosporin A 10 nM, KN-62 1 μM (methods)
Protocol: (§1) Cell proliferation was measured as ratio of DNA-synthesis by ^3H-thymidin-incorporation or use CellTiter96® (Promega). Briefly, the cells (4×10^4 cells/100 μl) were incubated in CFU-E-Medium (see above) with 0.8 μCi ^3H-thymidine (specific activity 29 Ci/mmol; Amersham, UK) for 2 hours at 37° C., brought onto filter plates and subjected to scintillation counting. The average values from triplicate samples were determined. The Celltiter96 MTS-assay was for 2 hours. Heparin (B. Braun, Melsungen, Germany) was used at 5 μg/ml. Inhibitors were used at the following concentrations: PD98059 (5 μM), PP2 (100 nM), U-73122 (1 μM), Worthmannin (100 nM), Cyclosporin A (10 nM), GF 109203X (10 nM) and KN-62 (1 μM) (all from Calbiochem).
(B) The bFGF/v-myb-cells were stimulated with bFGF and with specific inhibitors (for details see methods). Cell proliferation was measured in (A) per cent of proliferation in response to bFGF (25 ng/ml) and specific inhibitor is shown. Proliferation without inhibitor was arbitrarily set 100%.
(C) Dose response curve of the PLCy inhibitor U-73122 on bFGF/v-myb-cells in the presence of bFGF (25 ng/ml). Cell proliferation was measured by ^3H-thymidine incorporation assay as in (A). Two independent experiments arc shown.

[2] = system: bFGF/v-myb-cells; experiment: FGF dose response in cell proliferation assay (MTT / 3H-thymidine incorporation); conditions: for proliferative (mitogenic) response in the presence of heparin: heparin 5 μg/ml, 3H-thymidine incorporation, FIG. 5A; for stimulation of bFGF/v-myb-cell proliferation: serial dilutions starting at 100 ng/ml, without heparin, FIG. 4
Protocol: as §1
FGF—dose response measured by cell proliferation assay (MTT). Serial dilutions of aFGF and bFGF, respectively, starting at 100 ng/ml are shown.
(A) Dose response curve of aFGF and bFGF in the presence or absence of heparin is shown. Cell proliferation was measured by ^3H-thymidine incorporation assay.

[3] = system: bFGF/v-myb-cells; experiment: Erythroid differentiation assay (anaemic serum plus insulin)
Protocol: To produce erythroid differentiation, cells were incubated in CFU-E-medium without ChS (2×10^6 cells/ml) supplemented with 3% anaemic chicken serum (as source for erythropoietin) plus 10 ng/ml recombinant human insulin (Novo Nordisk) in the presence or absence of 25 ng/ml bFGF. Erythroid differentiation was assessed by (1) determining haemoglobin accumulation in cytospin preparations that stained with neutral, and Diff-Quik (Baxter, Switzerland), or in haemoglobin assay (Beug et al., 1995, Methods Enzymol, 254, 41-76) (2), measuring reduction in cell size with the CASY-1 Cell Counter and Analyser System; and (3) loss of proliferative potential in ^3H-thymidine incorporation assays. Photographs were taken and processed as above.
Differentiation properties of bFGF/v-myb erythroid progenitor cells. Kinetics of the different differentiation parameters of bFGF/v-myb-cells. The number of cells, the cell volume, and the amount of haemoglobin were estimated during the 4-day differentiation in absence (AS, Ins) or presence of bFGF (AS, Ins+bFGF) or without factor (no). The cells remaining in bFGF are only shown as a control (bFGF).

[4] = system: blastoderm derived bFGF/v-myb-cells; experiment: Growth factor requirements of blastoderm derived v-myb cells in culture; conditions: bFGF 25 ng/ml, SCF 100 ng/ml, TGFα 5 ng/ml; factor alone; FIG. 2B
Protocol: Blastoderm-derived cells (2 days incubation, Hamilton-stage HH 10-12) and bone marrow cells ([…]) were cocultivated for 2 days with a mitomycin C-treated virus or control (non-infected)-CEF in a CFU-E-medium (Beug et al., 1995, Methods Enzymol, 254, 41-76) containing bFGF (25 ng/ml, Promega), chicken-SCF (100 ng/ml; Bartunek et al., 1996, Cytokine, 8, 14-20), TGFα (5 ng/ml, Promega) or different combinations thereof, or no factors. After 2 days nonadherent cells were regenerated and cells were grown at 2×10^6 cells/ml. An outgrowth of myb transformed cells was routinely observed at day 5-7 and cell numbers were determined in regular time intervals using the cell counter and analyser system CASY-1 (Scharfe System, Reutlingen, Germany).
(B) Growth factor requirements of bFGF/v-myb-cells. The cumulative number of cells gown with various factors and combinations thereof are shown. Closed and open symbols refer to cells with an erythroid and myeloid phenotype, respectively.

[5] = differentiation induction in the presence of bFGF, FIG. 3

COc1ccc2c(c1)CC[C@@H]1[C@@H]2CC[C@]2(C)[C@@H](NCCCCCCN3C(=O)C=CC3=O)CC[C@@H]12 [U-73122]
effect on bFGF induced bFGF/v-myb cell proliferation [1]: dramatically reduced

COc1cccc(-c2cc(=O)c3ccccc3o2)c1N [PD 98059]
effect on bFGF induced bFGF/v-myb cell proliferation [1]: partially inhibitory only at higher concentrations

CN(C)CCCn1cc(C2=C(c3c[nH]c4ccccc34)C(=O)NC2=O)c2ccccc21 [GF109203X]
reduction of bFGF induced bFGF/v-myb cell proliferation [1]: 30%

cyclosporine A
reduction of bFGF induced bFGF/v-myb cell proliferation [1]: 45%

CC1(C)C(C=C(Cl)Cl)C1C(=O)OC(C#N)c1cccc(Oc2ccccc2)c1 (centres unmarked) [cypermethrin]
reduction of bFGF induced bFGF/v-myb cell proliferation [1]: 45%

CN([C@@H](Cc1ccc(OS(=O)(=O)c2cccc3cnccc23)cc1)C(=O)N1CCN(c2ccccc2)CC1)S(=O)(=O)c1cccc2cnccc12 [KN-62]
reduction of bFGF induced bFGF/v-myb cell proliferation [1]: Sixty per cent

bFGF: growth factor bFGF (basis fibroblast growth factor)
proliferative (mitogenic) response in the presence of heparin [2]: no further increase | stimulation of bFGF/v-myb-cell proliferation [2]: induced a maximal stimulation | ability to undergo terminal erythroid differentiation ([3]; differentiation induced by anaemic serum and insulin in the presence of 25 ng/ml bFGF): completely blocked | cell volume [3, 5]: approximately 500 μl | haemoglobin accumulation [3, 5]: did not accumulate haemoglobin | phenotype / outgrowth of v-myb cells with growth factor [4]: proliferating erythroid bFGF/v-myb-cells were obtained only in the presence of bFGF

COC[C@H]1OC(=O)c2coc3c2[C@@]1(C)C1=C(C3=O)[C@@H]2CCC(=O)[C@@]2(C)C[C@H]1OC(C)=O [Worthmannin]
effect on bFGF induced bFGF/v-myb cell proliferation [1]: ineffective

CC(C)=CCC/C(C)=C/CC/C(C)=C/CSc1ccccc1C(=O)O [FTS]
effect on bFGF induced bFGF/v-myb cell proliferation [1]: neither Ras inhibitor FTS (inhibitor of famesylation) nor src family inhibitor PP-2 had any effect

TGFα: growth factor TGFα
phenotype / outgrowth of v-myb cells with growth factor [4]: outgrowth exclusively of myeloid cells

aFGF: acidic FGF, FGF-1, member of the FGF family
proliferative (mitogenic) response in the presence of heparin [2]: clear enhancement | stimulation of bFGF/v-myb-cell proliferation [2]: only marginally if at all
